Data reported in ChEMBL document CHEMBL6114988, “Design, synthesis and biological evaluation of dual CDK9/PARP inhibitors for the treatment of cancer” (Eur J Med Chem, 2025).
Each block holds one compound with its values, some of them ahead of it.

Legend:
[1] = target: Poly [ADP-ribose] polymerase 1 (Homo sapiens, UniProt P09874); assay: Inhibition of PARP1 (unknown origin) incubated for 1 hr by ELISA
[2] = target: Cyclin-dependent kinase 9 (Homo sapiens, UniProt P50750)
Description: Inhibition of CDK9 (unknown origin) using lipid substrate incubated for 40 mins in presence of ATP by kinase-Glo plus luminescence assay

MDA-MB-231 [3] = assay: Induction of cell cycle arrest in human MDA-MB-231 cells assessed as accumulation of cells at S phase at 1 uM incubated for 24 hrs by PI staining based flow cytometric analysis (reference value: 29.2%); type: functional
MDA-MB-231 [4] = assay: Induction of cell cycle arrest in human MDA-MB-231 cells assessed as accumulation of cells at G2/M phase at 1 uM incubated for 24 hrs by PI staining based flow cytometric analysis (reference value: 11.3%); type: functional
MDA-MB-231 [5] = assay: Induction of apoptosis in human MDA-MB-231 cells assessed as necrotic cell at 0.2 uM incubated for 24 hrs by Annexin V-FITC/PI staining based analysis (reference value: 0.10 %); type: functional
[6] = Metabolic stability in artificial gastric fluid assessed as parent compound remaining at 1 mg/ml incubated for 8 hrs by HPLC analysis; type: ADME; settings: read-out: Stability
MCF7 = assay: cells; settings: Homo sapiens, MCF7, 48 h
Description: Antiproliferative activity against human MCF7 cells assessed as inhibition of cell proliferation incubated for 48 hrs by CCK-8 assay

MDA-MB-231 [7] = assay: Induction of apoptosis in human MDA-MB-231 cells assessed as early apoptotic cell at 10 uM incubated for 24 hrs by Annexin V-FITC/PI staining based analysis (reference value: 0.96 %); type: functional
MDA-MB-231 [8] = assay: Induction of apoptosis in human MDA-MB-231 cells assessed as viable cell at 10 uM incubated for 24 hrs by Annexin V-FITC/PI staining based analysis (reference value: 96.3 %); type: functional
MDA-MB-231 [9] = assay: Induction of apoptosis in human MDA-MB-231 cells assessed as necrotic cell at 10 uM incubated for 24 hrs by Annexin V-FITC/PI staining based analysis (reference value: 0.10 %); type: functional
MDA-MB-231 [10] = assay: Induction of apoptosis in human MDA-MB-231 cells assessed as early apoptotic cell at 0.2 uM incubated for 24 hrs by Annexin V-FITC/PI staining based analysis (reference value: 0.96 %); type: functional
MDA-MB-231 [11] = assay: Induction of cell cycle arrest in human MDA-MB-231 cells assessed as accumulation of cells at G1 phase at 1 uM incubated for 24 hrs by PI staining based flow cytometric analysis (reference value: 58.1%); type: functional
[12] = Metabolic stability in rat liver microsomes assessed as half life at 1 mg/ml incubated for 60 min in presence of NADPH by HPLC analysis; type: ADME, Microsome
MDA-MB-231 [13] = assay: Induction of apoptosis in human MDA-MB-231 cells assessed as late apoptotic cell at 0.2 uM incubated for 24 hrs by Annexin V-FITC/PI staining based analysis (reference value: 2.61 %); type: functional
MOLM-13 = assay: Antiproliferative activity against human MOLM-13 cells assessed as inhibition of cell proliferation incubated for 48 hrs by CCK-8 assay; type: functional, cell-based; settings: MOLM-13, 48 h
MDA-MB-231 [14] = assay: Induction of apoptosis in human MDA-MB-231 cells assessed as viable cell at 1 uM incubated for 24 hrs by Annexin V-FITC/PI staining based analysis (reference value: 96.3 %); type: functional
MDA-MB-231 [15] = assay: Induction of cell cycle arrest in human MDA-MB-231 cells assessed as accumulation of cells at S phase at 0.2 uM incubated for 24 hrs by PI staining based flow cytometric analysis (reference value: 29.2%); type: functional
MDA-MB-231 [16] = assay: Induction of apoptosis in human MDA-MB-231 cells assessed as viable cell at 0.2 uM incubated for 24 hrs by Annexin V-FITC/PI staining based analysis (reference value: 96.3 %); type: functional
MDA-MB-231 [17] = assay: Induction of apoptosis in human MDA-MB-231 cells assessed as necrotic cell at 1 uM incubated for 24 hrs by Annexin V-FITC/PI staining based analysis (reference value: 0.10 %); type: functional
MDA-MB-231 [18] = assay: cells; settings: Homo sapiens, MDA-MB-231, 48 h
Description: Antiproliferative activity against human MDA-MB-231 cells assessed as inhibition of cell proliferation incubated for 48 hrs by CCK-8 assay

MDA-MB-231 [19] = assay: Induction of apoptosis in human MDA-MB-231 cells assessed as early apoptotic cell at 1 uM incubated for 24 hrs by Annexin V-FITC/PI staining based analysis (reference value: 0.96 %); type: functional
MDA-MB-231 [20] = assay: Induction of apoptosis in human MDA-MB-231 cells assessed as late apoptotic cell at 1 uM incubated for 24 hrs by Annexin V-FITC/PI staining based analysis (reference value: 2.61 %); type: functional
MDA-MB-231 [21] = assay: Induction of cell cycle arrest in human MDA-MB-231 cells assessed as accumulation of cells at S phase at 10 uM incubated for 24 hrs by PI staining based flow cytometric analysis (reference value: 29.2%); type: functional
HeLa = assay: cells; settings: Homo sapiens, 48 h
Description: Antiproliferative activity against human HeLa cells assessed as inhibition of cell proliferation incubated for 48 hrs by CCK-8 assay

HCT-116 = assay: cells; settings: Homo sapiens, HCT-116, 48 h
Description: Antiproliferative activity against human HCT-116 cells assessed as inhibition of cell proliferation incubated for 48 hrs by CCK-8 assay

MV4-11 = assay: Antiproliferative activity against human MV4-11 cells assessed as inhibition of cell proliferation incubated for 48 hrs by CCK-8 assay; type: functional, cell-based; settings: MV4-11, 48 h
MDA-MB-231 [22] = assay: Induction of apoptosis in human MDA-MB-231 cells assessed as late apoptotic cell at 10 uM incubated for 24 hrs by Annexin V-FITC/PI staining based analysis (reference value: 2.61 %); type: functional
MDA-MB-231 [23] = assay: Induction of cell cycle arrest in human MDA-MB-231 cells assessed as accumulation of cells at G1 phase at 0.2 uM incubated for 24 hrs by PI staining based flow cytometric analysis (reference value: 58.1%); type: functional
MDA-MB-231 [24] = assay: Induction of cell cycle arrest in human MDA-MB-231 cells assessed as accumulation of cells at G1 phase at 10 uM incubated for 24 hrs by PI staining based flow cytometric analysis (reference value: 58.1%); type: functional
MDA-MB-231 [25] = assay: Induction of cell cycle arrest in human MDA-MB-231 cells assessed as accumulation of cells at G2/M phase at 10 uM incubated for 24 hrs by PI staining based flow cytometric analysis (reference value: 11.3%); type: functional
MDA-MB-231 [26] = assay: Induction of cell cycle arrest in human MDA-MB-231 cells assessed as accumulation of cells at G2/M phase at 0.2 uM incubated for 24 hrs by PI staining based flow cytometric analysis (reference value: 11.3%); type: functional
[27] = Metabolic stability in artificial intestinal fluid assessed as parent compound remaining at 1 mg/ml incubated for 8 hrs by HPLC analysis; type: ADME; settings: read-out: Stability
[28] = Metabolic stability in plasma assessed as parent compound remaining incubated for 3 hrs by HPLC analysis; type: ADME, cell-free; settings: read-out: Stability
MDA-MB-231 [29] = assay: Induction of apoptosis in human MDA-MB-231 cells assessed as early apoptotic cell at 2 uM incubated for 24 hrs by Annexin V-FITC/PI staining based analysis (reference value: 0.96 %); type: functional
MDA-MB-231 [30] = assay: Induction of cell cycle arrest in human MDA-MB-231 cells assessed as accumulation of cells at S phase at 2 uM incubated for 24 hrs by PI staining based flow cytometric analysis (reference value: 29.2%); type: functional
MDA-MB-231 [31] = assay: Induction of apoptosis in human MDA-MB-231 cells assessed as late apoptotic cell at 2 uM incubated for 24 hrs by Annexin V-FITC/PI staining based analysis (reference value: 2.61 %); type: functional
MDA-MB-231 [32] = assay: Induction of apoptosis in human MDA-MB-231 cells assessed as viable cell at 2 uM incubated for 24 hrs by Annexin V-FITC/PI staining based analysis (reference value: 96.3 %); type: functional
MDA-MB-231 [33] = assay: Induction of cell cycle arrest in human MDA-MB-231 cells assessed as accumulation of cells at G2/M phase at 2 uM incubated for 24 hrs by PI staining based flow cytometric analysis (reference value: 11.3%); type: functional
MDA-MB-231 [34] = assay: Induction of apoptosis in human MDA-MB-231 cells assessed as necrotic cell at 2 uM incubated for 24 hrs by Annexin V-FITC/PI staining based analysis (reference value: 0.10 %); type: functional
MDA-MB-231 [35] = assay: Induction of cell cycle arrest in human MDA-MB-231 cells assessed as accumulation of cells at G1 phase at 2 uM incubated for 24 hrs by PI staining based flow cytometric analysis (reference value: 58.1%); type: functional

Chain of Poly [ADP-ribose] polymerase 1 (P09874 whole entry): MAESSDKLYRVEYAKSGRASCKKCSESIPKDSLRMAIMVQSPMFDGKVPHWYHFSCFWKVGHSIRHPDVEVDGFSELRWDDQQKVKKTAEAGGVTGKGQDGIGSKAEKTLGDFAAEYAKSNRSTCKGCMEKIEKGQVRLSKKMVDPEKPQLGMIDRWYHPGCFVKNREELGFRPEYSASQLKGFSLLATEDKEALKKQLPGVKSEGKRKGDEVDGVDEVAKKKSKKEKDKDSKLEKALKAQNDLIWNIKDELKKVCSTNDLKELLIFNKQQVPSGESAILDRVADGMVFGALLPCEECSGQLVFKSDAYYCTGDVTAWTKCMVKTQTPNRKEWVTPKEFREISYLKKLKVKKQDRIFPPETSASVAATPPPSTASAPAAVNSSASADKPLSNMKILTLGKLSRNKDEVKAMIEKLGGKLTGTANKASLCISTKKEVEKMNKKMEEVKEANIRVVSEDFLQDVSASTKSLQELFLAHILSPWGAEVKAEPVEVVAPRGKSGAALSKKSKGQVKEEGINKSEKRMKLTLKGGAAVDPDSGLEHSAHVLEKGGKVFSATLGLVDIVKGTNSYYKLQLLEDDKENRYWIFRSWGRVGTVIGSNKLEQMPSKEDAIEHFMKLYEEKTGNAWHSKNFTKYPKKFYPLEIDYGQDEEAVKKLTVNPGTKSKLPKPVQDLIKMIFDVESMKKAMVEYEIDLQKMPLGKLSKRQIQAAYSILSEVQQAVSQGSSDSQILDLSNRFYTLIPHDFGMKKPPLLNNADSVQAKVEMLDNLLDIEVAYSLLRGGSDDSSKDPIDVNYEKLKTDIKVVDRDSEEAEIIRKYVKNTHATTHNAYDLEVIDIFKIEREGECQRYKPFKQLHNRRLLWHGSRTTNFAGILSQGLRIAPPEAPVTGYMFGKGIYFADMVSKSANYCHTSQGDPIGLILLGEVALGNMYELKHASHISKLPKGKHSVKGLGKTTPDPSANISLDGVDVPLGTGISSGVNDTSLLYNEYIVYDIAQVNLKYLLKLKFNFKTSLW
Chain of Cyclin-dependent kinase 9 (P50750 whole entry): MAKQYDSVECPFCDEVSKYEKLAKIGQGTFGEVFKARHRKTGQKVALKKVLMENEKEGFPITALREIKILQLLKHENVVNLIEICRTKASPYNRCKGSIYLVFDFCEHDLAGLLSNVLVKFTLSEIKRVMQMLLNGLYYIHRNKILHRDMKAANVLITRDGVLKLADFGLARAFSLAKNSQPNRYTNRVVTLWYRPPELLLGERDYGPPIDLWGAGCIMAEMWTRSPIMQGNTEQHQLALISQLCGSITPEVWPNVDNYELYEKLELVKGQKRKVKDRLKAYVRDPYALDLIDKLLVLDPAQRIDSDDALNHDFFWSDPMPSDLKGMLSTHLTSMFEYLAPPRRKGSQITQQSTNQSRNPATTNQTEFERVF

Structure (SMILES): O=C(c1cc(Cc2n[nH]c(=O)c3ccccc23)ccc1F)N1CCN(Cc2ccnc(Nc3cc(-c4ccc(F)c5ccoc45)c(F)cn3)c2)CC1
IC50 [1]: 118 nM
IC50 [2]: 54 nM

Structure (SMILES): O=C(c1cc(Cc2n[nH]c(=O)c3ccccc23)ccc1F)N1CCN(C(=O)C2CC2)CC1 [OLAPARIB]
remaining at 8 h, 1 mg/ml [6]: 99.4%
IC50 (MCF7): 195000 nM
half-life at 1 mg/ml [12]: 1.86 h
Activity (MDA-MB-231 [29]): 0.59%
IC50 (MOLM-13): 43100 nM
Activity (MDA-MB-231 [30]): 35.8%
Activity (MDA-MB-231 [31]): 2.13%
Activity (MDA-MB-231 [32]): 96.8%
Activity (MDA-MB-231 [33]): 14.1%
IC50 (MDA-MB-231 [18]): > 50000 nM
IC50 (HCT-116): 200000 nM
IC50 (MV4-11): 15200 nM
Activity (MDA-MB-231 [34]): 0.48%
remaining at 8 h, 1 mg/ml [27]: 100%
Activity (MDA-MB-231 [35]): 48.7%
remaining at 3 h [28]: 99.4%

Structure (SMILES): COc1ccc(F)cc1-c1cc(Nc2cc(CN3CCN(C(=O)c4cc(Cc5n[nH]c(=O)c6ccccc56)ccc4F)CC3)ccn2)ncc1F
IC50 [1]: 48 nM
IC50 [2]: 31 nM

More lines, main results first:

IC50 [1]: 32 nM
IC50 [2]: 59 nM
Structure (SMILES): CCOc1cc(F)ccc1-c1cc(Nc2cc(CN3CCN(C(=O)c4cc(Cc5n[nH]c(=O)c6ccccc56)ccc4F)CC3)ccn2)ncc1F

IC50 [1]: 30 nM
IC50 [2]: 31 nM
Structure (SMILES): COc1ccc(-c2cc(Nc3cc(CN4CCN(C(=O)c5cc(Cc6n[nH]c(=O)c7ccccc67)ccc5F)CC4)ccn3)ncc2F)c(OC)c1

IC50 [1]: 16 nM
IC50 [2]: 61 nM
Structure (SMILES): COc1cccc(F)c1-c1cc(Nc2cc(CN3CCN(C(=O)c4cc(Cc5n[nH]c(=O)c6ccccc56)ccc4F)CC3)ccn2)ncc1F

remaining at 8 h, 1 mg/ml [6]: 94.1%
IC50 (MCF7): 670 nM
half-life at 1 mg/ml [12]: 2.44 h
IC50 (MOLM-13): 690 nM
IC50 (MDA-MB-231 [18]): 440 nM
IC50 [1]: 6 nM
IC50 (HeLa): 250 nM
IC50 (HCT-116): 130 nM
IC50 (MV4-11): 3830 nM
IC50 [2]: 15 nM
remaining at 8 h, 1 mg/ml [27]: 96.7%
remaining at 3 h [28]: 94.6%
Structure (SMILES): CCOc1cc(F)ccc1-c1cc(Nc2cc(CN3CCN(C(=O)c4cc(Cc5n[nH]c(=O)c6ccccc56)ccc4F)CC3)ccn2)ncn1
Activity (MDA-MB-231 [3]): 31.1%
Activity (MDA-MB-231 [4]): 36.4%
Activity (MDA-MB-231 [5]): 0.81%
Activity (MDA-MB-231 [7]): 14.8%
Activity (MDA-MB-231 [8]): 76.1%
Activity (MDA-MB-231 [9]): 1.07%
Activity (MDA-MB-231 [10]): 1.64%
Activity (MDA-MB-231 [11]): 34.8%
Activity (MDA-MB-231 [13]): 2.67%
Activity (MDA-MB-231 [14]): 82.8%
Activity (MDA-MB-231 [15]): 40%
Activity (MDA-MB-231 [16]): 94.9%
Activity (MDA-MB-231 [17]): 1.78%
Activity (MDA-MB-231 [19]): 7.87%
Activity (MDA-MB-231 [20]): 7.54%
Activity (MDA-MB-231 [21]): 45.2%
Activity (MDA-MB-231 [22]): 8.01%
Activity (MDA-MB-231 [23]): 33.1%
Activity (MDA-MB-231 [24]): 25.3%
Activity (MDA-MB-231 [25]): 29.1%
Activity (MDA-MB-231 [26]): 27.9%
